Columns and labels:
[1] = system: MDA-MB-231 human breast cancer cells; assay: MDA-MB-231 cells in 3D non-adherent PEG diacrylate matrix (stem sub-population), cell viability and tumorsphere number; assay type: cell-based
[2] = system: MDA-MB-231 human breast cancer cells; assay: MDA-MB-231 cells on 2D adherent polystyrene culture plates (differentiated sub-population), cell viability; assay type: cell-based
Procedure: (§1) MDA-MB-231 human breast cancer cells were cultured on 2D adherent polystyrene culture plates that enriched the differentiated cell sub-population (CDC) and in 3D polyethylene glycol diacrylate crosslinked non-adherent matrix that enriches the stem sub-population (CSC). FIGS. 4A-4D compare cell content and the expression of CD44, ABCG2, and EGFR markers as a function of time.
FIGS. 5A-5D show the response of the MDA-MB-231 human breast cancer cells cultured in 2D adherent plates and 3D non-adherent matrix to treatment with Doxorubicin (DOX) cancer drug. For the 2D culture, cell viability decreased exponentially as the drug concentration increased (FIG. 5A) and reached about 5% as the drug concentration was increased to 5 μM.

CD44 = assay: Expression of CSC marker CD44 in MDA-MB-231 cells in 3D non-adherent matrix; assay type: cell-based, human
Procedure: as §1
(§2) FIG. 6A and FIG. 6B show the expression of CSC markers CD44 and EGFR, respectively, of MDA-MB-231 (MDA) human breast cancer cells grown in a 3D non-adherent matrix, as described in Example 1 above, after exposure to free Paclitaxel (PTX) or PTX conjugated to POSS nanoparticles (PTXconjPOSS) as a function of incubation time.

EGFR = assay: Expression of stem cell marker EGFR in MDA-MB-231 cells in 3D non-adherent matrix; assay type: cell-based, human; settings: as a function of incubation time (FIG. 6B)
Procedure: as §1, §2

Structure (SMILES) | number of tumorspheres ([1]; 3D matrix, 0.5 μM DOX concentration (FIG. 5C)) | number of tumorspheres, % of the initial number ([1]; 3D matrix, DOX concentration above 0.5 μM (FIG. 5C)) [%] | cell viability ([1]; 3D matrix, drug concentration 0.5 μM (FIG. 5B)) | effectiveness against cells in 3D non-adherent matrix ([1]; 3D non-adherent matrix, stem cell sub-population dominates (FIGS. 5B-5D)) | viability at 5 µM ([1]; Homo sapiens, MDA-MB-231, 3D matrix, 5 μM DOX concentration (FIG. 5B)) [%] | cells removed ([2]; 2D culture (FIG. 5A)) [%] | viability at 5 µM ([2]; Homo sapiens, MDA-MB-231, 2D culture, drug concentration 5 μM (FIG. 5A)) [%] | expression of CSC marker CD44 (CD44; 3D matrix, higher DOX concentrations (FIG. 5D)) | expression of EGFR (EGFR) | effectiveness against the differentiated sub-population of cancer cells ([2]; no data shown) | expression of CD44 (CD44; 3D non-adherent matrix, as a function of incubation time (FIG. 6A)) | toxicity to CSCs (CD44; concluded from CD44 and EGFR expression in 3D non-adherent matrix)
COc1cccc2c1C(=O)c1c(O)c3c(c(O)c1C2=O)C[C@@](O)(C(=O)CO)C[C@@H]3O[C@H]1C[C@H](N)[C@H](O)[C@H](C)O1 [DOX, Doxorubicin] | first increased | 85 | first increased | not effective | 35 | 95 | ~5 | dramatically increased | – | – | – | –
CC(=O)O[C@H]1C(=O)[C@@]2(C)[C@H]([C@H](OC(=O)c3ccccc3)[C@]3(O)C[C@H](OC(=O)[C@H](O)[C@@H](NC(=O)c4ccccc4)c4ccccc4)C(C)=C1C3(C)C)[C@]1(OC(C)=O)CO[C@@H]1C[C@@H]2O [PTX, Paclitaxel] | – | – | – | – | – | – | – | – | very high expression | effective | very high expression | not toxic to CSCs

Source: patent publication US11607393B2, “Drug delivery method for targeting cancer stem cells” (priority 2017, dated 2023)
